Experimental data published in publication PMC10304470, “Characterization of the Antimicrobial Activities of Trichoplusia ni Cecropin A as a High-Potency Therapeutic against Colistin-Resistant Escherichia coli” (Pharmaceutics, 2023).
Peptide text beside a SMILES is read from it.

Columns and labels:
[1] = system: colistin-resistant A. baumannii NMS 1915 (ColRAB 1915); conditions: MH broth, 2 × 10^5 cells/mL, 16 h, 37 °C, OD600, >95% killing
From the text: E. coli (KCTC 1682) was obtained from the Korean Collection for Type Cultures (KCTC, Jeongeup, Republic of Korea), and Acinetobacter baumannii (KCCM 40203) and Pseudomonas aeruginosa (KCCM 11328) from the Korea Culture Center of Microorganisms (KCCM, Seoul, Republic of Korea). Klebsiella pneumoniae (NCCP 16054), colistin-resistant E. coli NMA 1557 (ColREC 1557), NMS 12 (ColREC 12), and colistin-resistant A. baumannii NMS 1915 (ColRAB 1915), as well as colistin-resistant K. pneumoniae NMS 139 (ColRKP 139), were obtained from the National Institute of Health Multidrug Resistant Bacteria Specialized Pathogen Resources Bank (Osong, Republic of Korea).
The peptides dissolved at 10 mg/mL in deionized water were serially diluted from 64 μM to 0.5 μM in 96-well plates using Mueller–Hinton (MH) broth, and bacteria cultured to exponential growth were added at 2 × 10^5 cells/mL. The group of bacteria that grew untreated in the broth was set as the positive control, and the uninoculated broth as the negative control. Dissolved peptides are colorless and equal to the OD value of the medium only. After 16 h incubation at 37 °C, the absorbance at 600 nm was measured using a SpectraMAX microplate reader (Molecular Devices, San Jose, CA, USA).

[2] = system: ColREC 12; test: Biofilm inhibition assay, crystal violet; format: cell-based, Escherichia coli; conditions: ColREC 12, 2 μM peptide, 16 h
Protocol: To quantify the biofilm inhibitory activity of each peptide, ColREC 1557 and ColREC 12 were cultured in Luria–Bertani (LB) broth overnight and then sub-cultured in MH broth. Different concentrations of peptide (from 1 μM to 64 μM) were prepared in 96-well plates using MH broth (containing 0.2% glucose) and incubated with bacteria (2 × 10^5 cells/mL) at 37 °C for 16 h. After incubation, the culture medium was removed and methanol was added as a fixative for 15 min. The completely dried plates were stained for 2 h by adding 100 μL of staining solution (0.1% (w/v) crystal violet in 0.25% (v/v) acetic acid). The residual staining solution was gently rinsed off three times using distilled water. Subsequently, 90% ethanol was used to dissolve the dye, and absorbance was measured at 600 nm. The untreated bacterial group was used as a control to compare biofilm production rates.

[3] = system: ColREC 1557-stimulated RAW 264.7 cells; test: Nitrite (NO) production in ColREC 1557-infected macrophages; format: cell-based, mouse; conditions: 1.3 μM peptide, 1 h before ColREC 1557 infection
Protocol: (§1) To investigate the inflammatory response induced by ColREC 1557, RAW 264.7 cells (1 × 10^5 cells/well) were treated with various concentrations of peptide (0.6 to 10 μM) 1 h before bacterial infection. The control was an untreated cell. ColREC 1557 that had been cultured in LB broth overnight and sub-cultured to the exponential phase were harvested, suspended in DMEM, and used to infect RAW 264.7 cells to a final concentration of 1 × 10^5 cells/well. Subsequent nitrite and IL-6 detection was performed as described in Section 2.15.

[4] = system: ColREC 1557-stimulated RAW 264.7 cells; test: IL-6 secretion in ColREC 1557-infected macrophages, ELISA; format: cell-based, mouse; conditions: 1.3 μM peptide, 1 h before ColREC 1557 infection
Protocol: Interleukin-6 (IL-6)-specific enzyme-linked immunosorbent assays (ELISA; R&D Systems, Minneapolis, MN, USA) were performed according to the method specified by the manufacturer. Briefly, cell culture supernatants were added to immune plates treated with the capture antibody, followed by the detection antibody and streptavidin-horseradish peroxidase. For each step, the plates were washed twice with PBS containing 0.05% Tween 20. The plates were incubated with tetramethylbenzidine substrate (Invitrogen, Carlsbad, CA, USA), and the reaction was stopped with 2 N H2SO4 to measure absorbance at 450 nm. A standard graph of each marker was plotted and quantified.
as §1

Structure (SMILES): CC[C@H](C)CCCCC(=O)N[C@@H](CCN)C(=O)N[C@H](C(=O)N[C@@H](CCN)C(=O)N[C@H]1CCNC(=O)[C@H]([C@@H](C)O)NC(=O)[C@H](CCN)NC(=O)[C@H](CCN)NC(=O)[C@H](CC(C)C)NC(=O)[C@@H](CC(C)C)NC(=O)[C@H](CCN)NC1=O)[C@@H](C)O [colistin] (HELM PEPTIDE1{[CC[C@H](C)CCCCC(=O)[*:2]].[Dab].T.[Dab].[Dab].[Dab].[dL].L.[Dab].[Dab].T}$PEPTIDE1,PEPTIDE1,5:R3-11:R2$$$V2.0; N-terminus assumed; bridges inferred)
- Minimal Inhibitory Concentration [1]: >64 µM
- inhibition of biofilm formation [2]: 28.9%
- inhibition of NO [3]: 24.7%
- inhibition of IL-6 [4]: 18.4%
